Measured values: the supplement of paper PMC11451515

Tested on: P12-Ichikawa
Test: cell viability relative to DMSO control; higher = less cytotoxic
Conditions: 48 h
Summary of the method: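 NOMO1, SEM and P12-Ichikawa leukemia cells spent at least four passages adapting to each medium before use. They were seeded at 500 cells/well (NOMO1, SEM) or 1000 cells/well (P12-Ichikawa) in 5 μl in 1536-well plates and pin-dosed with library compounds in DMSO at 11 threefold steps from 47 μM down to 0.79 nM. After 48 h at 37°C, CellTiter-Glo One luminescence was read. Viability is reported as a percentage of the DMSO wells on each plate, with cell-free wells as background.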

[1] = HPLM + 10% dialyzed FBS, 0.000781 µM
[2] = HPLM + 10% dialyzed FBS, 0.00234 µM
[3] = HPLM + 10% dialyzed FBS, 0.00702 µM
[4] = HPLM + 10% dialyzed FBS, 0.0211 µM
[5] = HPLM + 10% dialyzed FBS, 0.0632 µM
[6] = HPLM + 10% dialyzed FBS, 0.19 µM
[7] = HPLM + 10% dialyzed FBS, 0.569 µM
[8] = HPLM + 10% dialyzed FBS, 1.71 µM
[9] = HPLM + 10% dialyzed FBS, 5.12 µM
[10] = HPLM + 10% dialyzed FBS, 15.4 µM
[11] = HPLM + 10% dialyzed FBS, 46.1 µM
[12] = RPMI 5 mM glucose + 10% FBS, 0.000781 µM
[13] = RPMI 5 mM glucose + 10% FBS, 0.00234 µM
[14] = RPMI 5 mM glucose + 10% FBS, 0.00702 µM
[15] = RPMI 5 mM glucose + 10% FBS, 0.0211 µM
[16] = RPMI 5 mM glucose + 10% FBS, 0.0632 µM
[17] = RPMI 5 mM glucose + 10% FBS, 0.19 µM
[18] = RPMI 5 mM glucose + 10% FBS, 0.569 µM
[19] = RPMI 5 mM glucose + 10% FBS, 1.71 µM
[20] = RPMI 5 mM glucose + 10% FBS, 5.12 µM
[21] = RPMI 5 mM glucose + 10% FBS, 15.4 µM
[22] = RPMI 5 mM glucose + 10% FBS, 46.1 µM
[23] = RPMI 5 mM glucose + 10% dialyzed FBS, 0.000781 µM
[24] = RPMI 5 mM glucose + 10% dialyzed FBS, 0.00234 µM
[25] = RPMI 5 mM glucose + 10% dialyzed FBS, 0.00702 µM
[26] = RPMI 5 mM glucose + 10% dialyzed FBS, 0.0211 µM
[27] = RPMI 5 mM glucose + 10% dialyzed FBS, 0.0632 µM
[28] = RPMI 5 mM glucose + 10% dialyzed FBS, 0.19 µM
[29] = RPMI 5 mM glucose + 10% dialyzed FBS, 0.569 µM
[30] = RPMI 5 mM glucose + 10% dialyzed FBS, 1.71 µM
[31] = RPMI 5 mM glucose + 10% dialyzed FBS, 5.12 µM
[32] = RPMI 5 mM glucose + 10% dialyzed FBS, 15.4 µM
[33] = RPMI 5 mM glucose + 10% dialyzed FBS, 46.1 µM

| Structure (SMILES) | cell viability [1] | cell viability [2] | cell viability [3] | cell viability [4] | cell viability [5] | cell viability [6] | cell viability [7] | cell viability [8] | cell viability [9] | cell viability [10] | cell viability [11] | cell viability [12] | cell viability [13] | cell viability [14] | cell viability [15] | cell viability [16] | cell viability [17] | cell viability [18] | cell viability [19] | cell viability [20] | cell viability [21] | cell viability [22] | cell viability [23] | cell viability [24] | cell viability [25] | cell viability [26] | cell viability [27] | cell viability [28] | cell viability [29] | cell viability [30] | cell viability [31] | cell viability [32] | cell viability [33] |
| --- | --- | --- | --- | --- | --- | --- | --- | --- | --- | --- | --- | --- | --- | --- | --- | --- | --- | --- | --- | --- | --- | --- | --- | --- | --- | --- | --- | --- | --- | --- | --- | --- | --- |
| O=C(O)c1ccc(-c2c[nH]c3ncc(-c4ccccc4)cc23)cc1C1CCCC1 | 108% | 113% | 123% | 116% | 122% | 119% | 120% | 122% | 117% | 80.8% | 92.6% | 119% | 131% | 113% | 126% | 134% | 133% | 138% | 131% | 129% | 67% | 105% | 114% | 124% | 126% | 130% | 132% | 125% | 138% | 133% | 121% | 73.6% | 96.3% |
| CN1CC/C(CC1)=C3\c4ccccc4CC(=O)c2sccc23 | 117% | 127% | 123% | 120% | 119% | 129% | 134% | 126% | 129% | 120% | 109% | – | – | – | – | – | – | – | – | – | – | – | – | – | – | – | – | – | – | – | – | – | – |
| CN1/C=C(\N=C(NC2=CC=C(C=C2)C(=O)N3CCOCC3)/C1=O)/C4=C(C)C(=CC=C4)NC(=O)C5=CC=C(C=C5)C(C)(C)C | 107% | 108% | 108% | 101% | 104% | 103% | 106% | 98.1% | 98.3% | 88.6% | 89.5% | 102% | 95.4% | 107% | 91.2% | 106% | 110% | 97.9% | 100% | 98.5% | 95.4% | 94.4% | 106% | 111% | 103% | 101% | 108% | 106% | 105% | 106% | 107% | 93.7% | 85.7% |
| CCOc1cc(/C=C2/C(=O)N(c3ccccc3)N=C2C)cc(Cl)c1OCC(=O)OC | 85.7% | 90.9% | 87.7% | 93.7% | 84.6% | 89.9% | 91.1% | 98.7% | 88.3% | 84.6% | 83.3% | 79.4% | 89.3% | 77.2% | 85.7% | 81% | 92.8% | 89.1% | 86.6% | 89.8% | 80.9% | 89.6% | 90.1% | 85.7% | 92% | 88% | 83% | 88.5% | 85% | 86.9% | 86.9% | 90.7% | 86.5% |
| C[C@H](NC(=O)Cc1cc(F)cc(F)c1)C(=O)N[C@@H]1C(=O)N(C)c2ccccc2-c2ccccc21 | 105% | 118% | 113% | 116% | 113% | 38.4% | 109% | 99.5% | 6.06% | 3.41% | 1.45% | 110% | 111% | 128% | 128% | 116% | 125% | 119% | 122% | 100% | 3.68% | 2.54% | 97.7% | 111% | 112% | 113% | 118% | 117% | 113% | 115% | 84.8% | 3.93% | 1.82% |
| FC1=CC=C(CN2\C=C/C=C(/C(=O)N[C@@H](COC3=CC4=C(NC(=O)N4)C=C3)C5=CC=CC=C5)C2=O)C=C1F | 89.1% | 97.2% | 98.9% | 96.2% | 104% | 98.8% | 97.3% | 89.2% | 76.4% | 70.1% | 64.7% | 82.9% | 90.2% | 85.9% | 86.8% | 88.9% | 88.9% | 86.9% | 72.6% | 53.9% | 50.5% | 44.8% | 81.6% | 89.4% | 90.5% | 94.6% | 89.3% | 94.5% | 79.9% | 76.6% | 58.5% | 54.2% | 45.4% |
| NCCCC(O)(P(=O)(O)O)P(=O)(O)O.O.O.O.[Na+] | 109% | 113% | 123% | 114% | 114% | 112% | 102% | 97.9% | 68.3% | 45.1% | 19.7% | 120% | 116% | 119% | 119% | 119% | 121% | 112% | 107% | 85.5% | 64.9% | 51.4% | 121% | 121% | 125% | 120% | 117% | 120% | 109% | 97.3% | 76.3% | 46.4% | 35.6% |
| COCCCOc1ccnc(C[S+]([O-])c2nc3ccccc3[nH]2)c1C (configuration not stated) | 107% | 116% | 109% | 105% | 121% | 113% | 123% | 119% | 125% | 113% | 117% | 114% | 109% | 117% | 106% | 112% | 125% | 135% | 130% | 120% | 131% | 119% | 105% | 105% | 114% | 105% | 134% | 132% | 131% | 113% | 115% | 123% | 121% |
